Test results published in patent US12617758B2, “Quinazoline derivative having FLT3 inhibitory activity, and use thereof” (INDUSTRY-UNIVERSITY COOPERATION FOUNDATION HANYANG …, priority 2020, dated 2026).
Like-named read-outs stand apart in the source and are kept apart here.

Experiments:
Assay type in all cases: biochemical
FLT (ITD) = target: T1, FLT (ITD) (Homo sapiens, UniProt P36888); assay: FLT (ITD) enzyme activity (IC50)
T1 sequence (P36888 1-993): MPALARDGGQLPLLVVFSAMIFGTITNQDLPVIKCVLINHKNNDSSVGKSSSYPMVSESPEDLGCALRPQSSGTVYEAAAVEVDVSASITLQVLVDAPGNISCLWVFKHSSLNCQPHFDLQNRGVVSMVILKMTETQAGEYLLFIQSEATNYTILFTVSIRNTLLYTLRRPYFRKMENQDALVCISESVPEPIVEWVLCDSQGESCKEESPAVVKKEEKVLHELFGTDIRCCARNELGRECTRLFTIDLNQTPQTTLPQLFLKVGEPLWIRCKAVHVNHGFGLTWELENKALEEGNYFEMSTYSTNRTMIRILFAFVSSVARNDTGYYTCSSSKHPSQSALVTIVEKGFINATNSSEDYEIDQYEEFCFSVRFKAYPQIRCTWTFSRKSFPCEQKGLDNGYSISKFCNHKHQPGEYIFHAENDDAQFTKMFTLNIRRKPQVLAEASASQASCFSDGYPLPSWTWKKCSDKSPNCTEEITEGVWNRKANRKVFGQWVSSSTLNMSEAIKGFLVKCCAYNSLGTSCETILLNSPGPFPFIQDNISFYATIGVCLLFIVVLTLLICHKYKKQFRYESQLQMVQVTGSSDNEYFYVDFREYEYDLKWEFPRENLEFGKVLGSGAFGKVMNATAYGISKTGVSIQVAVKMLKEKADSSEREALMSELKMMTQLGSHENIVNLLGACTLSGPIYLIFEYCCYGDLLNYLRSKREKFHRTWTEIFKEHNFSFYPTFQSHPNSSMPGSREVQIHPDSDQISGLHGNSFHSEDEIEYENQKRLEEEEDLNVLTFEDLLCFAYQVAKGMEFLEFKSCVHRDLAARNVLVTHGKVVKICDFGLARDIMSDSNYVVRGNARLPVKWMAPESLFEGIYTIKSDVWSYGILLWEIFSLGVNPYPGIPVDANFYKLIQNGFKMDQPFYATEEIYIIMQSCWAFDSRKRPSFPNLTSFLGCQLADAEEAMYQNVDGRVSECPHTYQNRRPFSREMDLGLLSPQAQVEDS
Excerpt: Experimental Example 1. Measurement of FLT3 and FLT Enzyme Activity
Changes in FLT3 and FLT enzyme activities by treatment with the quinazoline derivatives of the following Table 1 according to the present invention were confirmed by IC50.

FLT3 (D835Y) = FLT3 (D835Y) (Homo sapiens, UniProt P36888, D835Y); assay: Inhibitory activity against FLT3 mutants
Excerpt: (§1) Subsequently, the inhibitory activity of Compound 7d against other different FLT3 mutants was additionally investigated and is shown in Table 2. […] Further, Compound 7d was also strong against FLT3 mutations located in the TKD.

FLT3 (F594_R595 ins EY) = FLT3 (F594_R595 ins EY) (Homo sapiens, UniProt P36888, INS594EY); assay: Inhibitory activity against FLT3 mutants; settings: insertion of 2 amino acids
Excerpt: as §1

FLT3 (F594_R595 ins R) = FLT3 (F594_R595 ins R) (Homo sapiens, UniProt P36888, INS594R); assay: Inhibitory activity against FLT3 mutants; settings: insertion of 1 amino acid
Excerpt: as §1

[1] = target: FLT3 (Y591_V592 ins VDFREYEYD) (Homo sapiens, UniProt P36888, INS591VDFREYEYD); assay: Inhibitory activity against FLT3 mutants; settings: insertion of 9 amino acids
Excerpt: as §1

ABL1 = ABL1 (Homo sapiens, UniProt P00519); assay: Kinase panel screening; settings: single dose of 10 μM, read-out: % inhibition rate
Sequence of ABL1 (P00519 whole entry, species assumed): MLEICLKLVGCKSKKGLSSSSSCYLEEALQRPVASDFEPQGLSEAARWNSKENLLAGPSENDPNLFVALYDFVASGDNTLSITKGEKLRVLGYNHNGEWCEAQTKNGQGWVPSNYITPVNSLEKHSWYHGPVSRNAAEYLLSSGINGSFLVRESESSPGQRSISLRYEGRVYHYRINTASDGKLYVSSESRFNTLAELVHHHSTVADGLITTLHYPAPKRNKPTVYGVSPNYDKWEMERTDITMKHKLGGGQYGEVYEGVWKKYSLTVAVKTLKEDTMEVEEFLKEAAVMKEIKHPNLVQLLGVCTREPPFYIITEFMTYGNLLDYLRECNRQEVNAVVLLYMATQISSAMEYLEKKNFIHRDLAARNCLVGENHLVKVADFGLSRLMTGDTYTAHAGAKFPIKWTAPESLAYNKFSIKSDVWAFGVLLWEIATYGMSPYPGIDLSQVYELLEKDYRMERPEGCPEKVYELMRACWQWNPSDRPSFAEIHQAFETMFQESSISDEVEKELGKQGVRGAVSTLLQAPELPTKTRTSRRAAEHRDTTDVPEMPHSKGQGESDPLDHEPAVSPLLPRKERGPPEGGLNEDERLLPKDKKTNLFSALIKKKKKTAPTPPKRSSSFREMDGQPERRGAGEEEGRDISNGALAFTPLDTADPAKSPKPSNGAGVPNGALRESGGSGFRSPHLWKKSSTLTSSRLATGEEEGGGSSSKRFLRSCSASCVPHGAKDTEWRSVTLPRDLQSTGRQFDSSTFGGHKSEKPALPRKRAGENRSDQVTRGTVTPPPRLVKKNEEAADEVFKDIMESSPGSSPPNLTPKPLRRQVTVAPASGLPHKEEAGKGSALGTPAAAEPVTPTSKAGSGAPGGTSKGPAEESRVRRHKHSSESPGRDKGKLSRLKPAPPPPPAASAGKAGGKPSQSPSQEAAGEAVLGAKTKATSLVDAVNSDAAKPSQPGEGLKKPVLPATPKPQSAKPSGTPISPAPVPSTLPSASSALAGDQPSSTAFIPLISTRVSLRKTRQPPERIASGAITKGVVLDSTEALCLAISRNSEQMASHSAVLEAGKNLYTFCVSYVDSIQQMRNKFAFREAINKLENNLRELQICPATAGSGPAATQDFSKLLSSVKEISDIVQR

AKT1 = AKT1 (Homo sapiens, UniProt P31749); assay: Kinase panel screening; settings: single dose of 10 μM, read-out: % inhibition rate
Sequence of AKT1 (P31749 whole entry, species assumed): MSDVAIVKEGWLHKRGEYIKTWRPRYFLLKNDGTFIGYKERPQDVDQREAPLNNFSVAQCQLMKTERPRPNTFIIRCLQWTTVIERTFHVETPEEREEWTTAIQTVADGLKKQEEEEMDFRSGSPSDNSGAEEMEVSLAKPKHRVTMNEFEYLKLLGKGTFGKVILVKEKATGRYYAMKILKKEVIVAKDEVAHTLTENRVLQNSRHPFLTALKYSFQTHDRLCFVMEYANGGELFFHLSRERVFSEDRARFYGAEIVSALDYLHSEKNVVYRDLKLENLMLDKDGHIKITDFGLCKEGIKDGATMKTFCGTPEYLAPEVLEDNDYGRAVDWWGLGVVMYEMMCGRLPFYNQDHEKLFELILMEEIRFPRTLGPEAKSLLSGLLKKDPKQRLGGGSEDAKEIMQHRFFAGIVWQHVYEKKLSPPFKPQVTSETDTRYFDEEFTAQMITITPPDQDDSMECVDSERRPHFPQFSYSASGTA

BRAF (V599E) = BRAF (V599E) (Homo sapiens, UniProt P15056, V600E); assay: Kinase panel screening; settings: single dose of 10 μM, read-out: % inhibition rate
Sequence of BRAF (V599E) (P15056 416-766 V600E limits assumed, species assumed): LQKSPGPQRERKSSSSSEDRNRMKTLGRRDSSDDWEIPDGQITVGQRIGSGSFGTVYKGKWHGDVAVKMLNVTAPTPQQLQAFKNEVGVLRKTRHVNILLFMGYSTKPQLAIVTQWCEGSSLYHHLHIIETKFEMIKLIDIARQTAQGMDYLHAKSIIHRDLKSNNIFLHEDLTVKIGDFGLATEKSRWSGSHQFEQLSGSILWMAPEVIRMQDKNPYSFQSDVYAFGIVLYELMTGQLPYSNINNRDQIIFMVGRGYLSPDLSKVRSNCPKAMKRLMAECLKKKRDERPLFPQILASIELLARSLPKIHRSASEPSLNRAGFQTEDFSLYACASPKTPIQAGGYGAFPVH

c-Kit = c-Kit (Homo sapiens, UniProt P10721); assay: Kinase panel screening; settings: single dose of 10 μM
Sequence of c-Kit (P10721 26-976): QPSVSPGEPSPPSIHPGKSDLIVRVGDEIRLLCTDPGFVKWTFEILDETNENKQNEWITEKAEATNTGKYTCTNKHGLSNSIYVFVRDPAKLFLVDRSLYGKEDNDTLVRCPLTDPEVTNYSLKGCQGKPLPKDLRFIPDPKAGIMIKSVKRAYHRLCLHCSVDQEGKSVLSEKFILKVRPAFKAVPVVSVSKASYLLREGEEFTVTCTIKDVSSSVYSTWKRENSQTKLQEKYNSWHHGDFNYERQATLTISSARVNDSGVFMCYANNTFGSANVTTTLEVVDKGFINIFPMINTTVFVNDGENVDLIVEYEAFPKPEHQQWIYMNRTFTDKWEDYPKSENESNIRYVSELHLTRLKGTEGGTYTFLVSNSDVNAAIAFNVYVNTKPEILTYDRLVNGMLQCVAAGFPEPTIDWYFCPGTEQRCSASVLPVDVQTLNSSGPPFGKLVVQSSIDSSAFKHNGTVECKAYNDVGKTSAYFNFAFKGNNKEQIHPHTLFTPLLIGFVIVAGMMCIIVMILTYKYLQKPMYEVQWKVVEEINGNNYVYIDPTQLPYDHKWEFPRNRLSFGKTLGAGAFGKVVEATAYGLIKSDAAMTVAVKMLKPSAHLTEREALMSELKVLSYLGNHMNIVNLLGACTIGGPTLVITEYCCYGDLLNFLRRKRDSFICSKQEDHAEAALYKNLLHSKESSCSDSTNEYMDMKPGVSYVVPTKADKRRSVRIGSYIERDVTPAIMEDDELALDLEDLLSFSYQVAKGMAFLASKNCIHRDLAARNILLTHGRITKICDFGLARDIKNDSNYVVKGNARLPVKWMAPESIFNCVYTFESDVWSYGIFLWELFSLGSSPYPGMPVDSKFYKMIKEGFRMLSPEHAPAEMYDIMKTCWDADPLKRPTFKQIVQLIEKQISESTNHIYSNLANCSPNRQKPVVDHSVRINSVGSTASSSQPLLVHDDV

CAMKK1 = CAMKK1 (Homo sapiens, UniProt Q8N5S9); assay: Kinase panel screening; settings: single dose of 10 μM, read-out: % inhibition rate
CDK4/cyclin D1 = CDK4/cyclin D1 (Homo sapiens, UniProt P11802); assay: Kinase panel screening; settings: single dose of 10 μM, read-out: % inhibition rate
EGFR = EGFR (Homo sapiens, UniProt P00533); assay: Kinase panel screening; settings: single dose of 10 μM, read-out: % inhibition rate
Sequence of EGFR (P00533 25-1210, species assumed): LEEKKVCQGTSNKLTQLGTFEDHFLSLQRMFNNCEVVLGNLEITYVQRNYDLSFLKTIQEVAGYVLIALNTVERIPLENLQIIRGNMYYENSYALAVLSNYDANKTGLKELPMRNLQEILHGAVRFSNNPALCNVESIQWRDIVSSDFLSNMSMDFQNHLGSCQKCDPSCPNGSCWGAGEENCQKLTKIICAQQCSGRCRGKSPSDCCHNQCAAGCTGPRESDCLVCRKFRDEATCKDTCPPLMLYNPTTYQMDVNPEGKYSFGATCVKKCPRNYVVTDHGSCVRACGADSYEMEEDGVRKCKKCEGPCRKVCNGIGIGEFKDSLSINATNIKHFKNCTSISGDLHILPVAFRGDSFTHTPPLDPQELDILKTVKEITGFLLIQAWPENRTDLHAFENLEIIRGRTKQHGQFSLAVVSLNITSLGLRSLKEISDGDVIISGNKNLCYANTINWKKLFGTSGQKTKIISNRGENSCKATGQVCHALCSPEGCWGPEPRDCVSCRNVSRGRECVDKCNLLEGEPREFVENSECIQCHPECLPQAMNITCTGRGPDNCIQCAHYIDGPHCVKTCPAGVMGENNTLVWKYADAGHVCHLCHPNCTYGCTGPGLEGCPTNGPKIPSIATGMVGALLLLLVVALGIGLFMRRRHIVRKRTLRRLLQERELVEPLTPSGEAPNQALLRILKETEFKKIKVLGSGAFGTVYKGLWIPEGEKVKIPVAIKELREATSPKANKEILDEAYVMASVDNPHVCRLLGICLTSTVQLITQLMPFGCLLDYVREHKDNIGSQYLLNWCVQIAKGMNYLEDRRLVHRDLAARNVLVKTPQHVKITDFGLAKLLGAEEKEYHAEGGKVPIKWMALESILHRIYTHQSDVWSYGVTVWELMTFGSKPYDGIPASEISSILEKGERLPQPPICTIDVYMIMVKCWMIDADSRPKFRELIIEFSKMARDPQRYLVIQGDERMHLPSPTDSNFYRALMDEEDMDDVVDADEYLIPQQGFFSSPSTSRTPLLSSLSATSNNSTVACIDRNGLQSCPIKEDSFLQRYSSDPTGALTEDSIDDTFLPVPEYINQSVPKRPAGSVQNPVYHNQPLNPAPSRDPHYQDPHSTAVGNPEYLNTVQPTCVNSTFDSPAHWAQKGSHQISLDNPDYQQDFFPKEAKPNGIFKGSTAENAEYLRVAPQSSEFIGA

FLT3-ITD = FLT3-ITD (Homo sapiens, UniProt P36888); assay: Kinase panel screening; settings: single dose of 10 μM
GSK3b = GSK3b (Homo sapiens, UniProt P49841); assay: Kinase panel screening; settings: single dose of 10 μM, read-out: % inhibition rate
Sequence of GSK3b (P49841 whole entry, species assumed): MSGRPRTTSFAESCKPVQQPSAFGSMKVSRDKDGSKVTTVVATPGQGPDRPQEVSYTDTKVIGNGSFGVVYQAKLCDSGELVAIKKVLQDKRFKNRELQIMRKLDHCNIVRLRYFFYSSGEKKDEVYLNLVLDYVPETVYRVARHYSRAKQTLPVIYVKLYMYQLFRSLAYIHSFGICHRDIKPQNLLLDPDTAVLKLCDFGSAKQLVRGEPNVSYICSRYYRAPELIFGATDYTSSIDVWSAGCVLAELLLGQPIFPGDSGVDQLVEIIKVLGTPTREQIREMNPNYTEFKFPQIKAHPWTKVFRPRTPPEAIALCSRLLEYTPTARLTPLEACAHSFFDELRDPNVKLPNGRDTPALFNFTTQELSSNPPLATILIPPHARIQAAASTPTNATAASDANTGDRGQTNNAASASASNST

IGF1R = IGF1R (Homo sapiens, UniProt P08069); assay: Kinase panel screening; settings: single dose of 10 μM, read-out: % inhibition rate
JAK3 = JAK3 (Homo sapiens, UniProt P52333); assay: Kinase panel screening; settings: single dose of 10 μM, read-out: % inhibition rate
KDR/VEGFR2 = KDR/VEGFR2 (Homo sapiens, UniProt P35968); assay: Kinase panel screening; settings: single dose of 10 μM, read-out: % inhibition rate
P38a/MAPK14 = P38a/MAPK14 (Homo sapiens, UniProt Q16539); assay: Kinase panel screening; settings: single dose of 10 μM, read-out: % inhibition rate
Sequence of P38a/MAPK14 (Q16539 whole entry): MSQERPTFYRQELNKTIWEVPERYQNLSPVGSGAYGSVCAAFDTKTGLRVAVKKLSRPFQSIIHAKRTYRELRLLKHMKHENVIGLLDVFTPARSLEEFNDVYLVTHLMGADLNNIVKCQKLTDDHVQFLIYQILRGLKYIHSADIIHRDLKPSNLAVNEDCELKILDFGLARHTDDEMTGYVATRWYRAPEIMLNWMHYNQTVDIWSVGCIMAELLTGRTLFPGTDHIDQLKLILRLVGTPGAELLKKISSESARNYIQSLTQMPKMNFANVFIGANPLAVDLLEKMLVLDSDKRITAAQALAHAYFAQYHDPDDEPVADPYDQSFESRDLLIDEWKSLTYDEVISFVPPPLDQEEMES

PKA = PKA (Homo sapiens, UniProt P17612); assay: Kinase panel screening; settings: single dose of 10 μM, read-out: % inhibition rate
PLK1 = PLK1 (Homo sapiens, UniProt P53350); assay: Kinase panel screening; settings: single dose of 10 μM, read-out: % inhibition rate
SYK = SYK (Homo sapiens, UniProt P43405); assay: Kinase panel screening; settings: single dose of 10 μM, read-out: % inhibition rate

Compound `Cc1oncc1C(=O)Nc1ccc2cnc(-c3cc(N4CCN(C)CC4)cc(C(F)(F)F)c3)nc2c1` [Compound 7d, 5-methyl-N-(2-(3-(4-methylpiperazin-1-yl)-5-(trifluoromethyl)phenyl)quinazolin-7-yl)isoxazole-4-carboxamide] has an IC50 (FLT (ITD); read-out: FLT (ITD) IC50) of under 3000 nM, an IC50 (FLT (ITD); read-out: IC50 against FLT-ITD) of 301 nM and an IC50 (FLT3 (D835Y)) of 228 nM. For the same compound, the IC50 (FLT3 (F594_R595 ins EY)) was 495 nM, the IC50 (FLT3 (F594_R595 ins R)) was 524 nM and the IC50 [1] was 728 nM. It also gave an inhibition at 10 µM (ABL1) of 6.46%, an inhibition at 10 µM (AKT1) of 5.48% and an inhibition at 10 µM (BRAF (V599E)) of 5.19%. The “% inhibition rate” value (c-Kit) was “did not exhibit inhibitory activity”, the inhibition at 10 µM (c-Kit; read-out: % inhibition rate) was 0% and the inhibition at 10 µM (CAMKK1) was 0%. The inhibition at 10 µM (CDK4/cyclin D1) was 3.01%, the inhibition at 10 µM (EGFR) was 0% and the “% inhibition rate” value (FLT3-ITD) was 95.2%. For the same compound, the inhibition at 10 µM (GSK3b) was 8.06%, the inhibition at 10 µM (IGF1R) was 0% and the inhibition at 10 µM (JAK3) was 0.8%. For the same compound, the inhibition at 10 µM (KDR/VEGFR2) was 16.8%, the inhibition at 10 µM (P38a/MAPK14) was 0% and the inhibition at 10 µM (PKA) was 2.5%. For the same compound, the inhibition at 10 µM (PLK1) was 0% and the inhibition at 10 µM (SYK) was 22.4%.
